In general, Ki refers to a measure of affinity in units of concentration, obtained from inhibition or displacement.

This is an account of results in patent publication US20070275990A1, “Heterocyclic Spiro Compound” (ONO PHARMACEUTICAL CO., LTD., priority 2003, published 2007).

One test deals with T1, MBR (Rattus norvegicus, UniProt P16257).
T1 construct: from tissue; host or cells: whole brain without cerebellum of male Wistar rats, crude membrane preparation
Kind of test: Receptor binding experiment ([3H]PK11195 competition binding). To be noted: rat brain membrane preparation, [3H]PK11195 0.5 or 1 nmol/L; Ki calculated by Cheng and Prusoff formula from KD value and IC50. The procedure: The affinity of the compounds in the present invention to MBR was determined using rat brain membrane preparation. In addition, the measurement in the present invention was improved the accuracy of measurement and the sensitivity of measurement for evaluating the compounds in the present invention as follows. After male Wister rats were decapitated to extirpate the whole brain and cerebellums were removed. They were homogenized in ice-cold 50 mmol/L Tris-HCL buffer solution (pH 7.4), centrifuged and the obtained pellets were washed. The pellets resuspended and adjusted to about 1 mg/mL were used as rat brain membrane preparations for binding assay. The binding assay were experimented using [^3H]PK11195 as a MBR selective ligand. […]
To determine the amount of total binding in saturation binding experiment, membrane preparations, various concentrations of [^3H]PK11195, final concentration: 0.5 vol % dimethylsulfoxide (DMSO) and 50 mmol/L Tris-HCL buffer solution (pH 7.4) were mixed (total volume 200 μL) and were incubated for 1 hour at room temperature. […] The filter was dried and then the radioactivity on the filter was measured by liquid scintillation counter. The data obtained by the binding experiments were Scatchard analyzed using analysis software, KELL (Ver. 6, BIOSOFT) and the dissociation constant (KD value) was determined. […]

A further test has as its system male Wistar rats. Briefly: Evaluation of anti-stress effects (defecation under psychological stress). The test is classed as in vivo, rat. Conditions: 10 mg/kg orally 30 minutes before stressor load; counted 1 hour later; media treated group average 8.7 feces. As to the method:
Psychological stress was loaded to male Wistar rats (Brain research, 641, 21-28, 1994). Water was stored up to the depth of about 10 cm in a container where the platform was set at the center. A stressor began to load to rats 30 minutes after the vehicle or the compound in the present invention (the compound of Example 15(39)) were orally administered by dosage of 10 mg/kg. The number of defecation was counted 1 hour later (10 per each group). Rats without administration and load of stressor rarely defecated for 1 hour. In contrast, remarkable defecation was admitted in media treated group (average 8.7 feces) loaded by stressor. […] The results clarified that the compounds in the present invention had anti-stress effects.

For the compound `O=C1N(c2ccccc2)CCC12CCCN(S(=O)(=O)c1ccccc1)C2` (stereo not drawn) [Example 7, 2-phenyl-7-(phenylsulfonyl)-2,7-diazaspiro[4.5]decan-1-one], the Ki at MBR is 230 nM.
In the case of `COc1ccc(S(=O)(=O)N2CCCC3(CCN(c4ccc(Cl)cc4)C3=O)C2)cc1` (stereo not drawn) [Example 15(39), 2-(4-chlorophenyl)-7-[(4-methoxyphenyl)sulfonyl]-2,7-diazaspiro[4.5]decan-1-one], the “number of defecation (average)” value with male Wistar rats was 5.8 feces. Besides, at MBR, the inhibition constant Ki was 40 nM.
